Measured values taken from patent US6908919B2, “Substituted polycyclic aryl and heteroaryl pyrazinones useful for selective inhibition of the coagulation cascade” (Pharmacia Corporation, priority 1999, dated 2005).
Like-named read-outs stand apart in the source and are kept apart here.

What was measured:
[1] = biological target: T1, recombinant soluble tissue factor and recombinant human factor VIIa (TF-VIIa) (Homo sapiens, UniProt P08709); assay: TF-VIIa Assay; format: biochemical; settings: for IC50: read-out: IC50 TF-VIIa
T1 construct: conversion of coagulation factor VII to VIIa by Xa; purchased American Diagnostica, Greenwich Conn; host or cells: VIIa purchased; soluble TF made in house in E. coli
T1 sequence (P08709 61-212 limits assumed): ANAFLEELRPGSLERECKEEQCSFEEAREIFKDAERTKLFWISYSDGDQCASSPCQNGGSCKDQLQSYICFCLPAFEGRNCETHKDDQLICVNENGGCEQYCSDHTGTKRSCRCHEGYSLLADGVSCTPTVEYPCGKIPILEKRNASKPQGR
T1 sequence (P08709 213-466 limits assumed): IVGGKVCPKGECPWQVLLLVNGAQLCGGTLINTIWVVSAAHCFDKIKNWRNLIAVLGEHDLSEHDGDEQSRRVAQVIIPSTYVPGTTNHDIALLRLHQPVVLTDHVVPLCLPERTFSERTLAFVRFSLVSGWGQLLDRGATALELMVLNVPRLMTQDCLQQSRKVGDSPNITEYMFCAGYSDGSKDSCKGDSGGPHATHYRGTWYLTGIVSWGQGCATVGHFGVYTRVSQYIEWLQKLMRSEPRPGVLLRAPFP
T1 sequence (P13726 33-251 partner limits assumed): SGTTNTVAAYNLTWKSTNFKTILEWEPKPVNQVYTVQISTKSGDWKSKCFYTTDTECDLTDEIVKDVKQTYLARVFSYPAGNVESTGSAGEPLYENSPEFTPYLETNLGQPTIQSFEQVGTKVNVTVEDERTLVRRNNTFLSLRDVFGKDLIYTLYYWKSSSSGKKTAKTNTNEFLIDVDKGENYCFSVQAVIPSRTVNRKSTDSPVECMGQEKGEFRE

Human factor Xa = Human factor Xa (Homo sapiens, UniProt P00742); assay: Xa Assay; format: biochemical; design: purchased Enzyme Research Laboratories, South Bend Ind
Human factor Xa, sequence (P00742 41-179 limits assumed): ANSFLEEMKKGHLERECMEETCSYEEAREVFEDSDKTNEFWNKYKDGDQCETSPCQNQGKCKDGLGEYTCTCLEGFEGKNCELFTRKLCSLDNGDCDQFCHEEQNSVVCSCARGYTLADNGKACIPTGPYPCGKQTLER
Human factor Xa, sequence (P00742 235-488 limits assumed): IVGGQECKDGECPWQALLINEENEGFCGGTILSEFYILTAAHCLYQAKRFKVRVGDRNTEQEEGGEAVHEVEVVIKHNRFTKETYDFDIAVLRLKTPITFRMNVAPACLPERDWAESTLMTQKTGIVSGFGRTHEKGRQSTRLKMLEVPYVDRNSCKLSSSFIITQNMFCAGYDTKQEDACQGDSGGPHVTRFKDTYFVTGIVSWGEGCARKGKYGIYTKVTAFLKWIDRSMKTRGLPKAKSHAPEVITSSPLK

Structure (SMILES) | % Inhibition TF-VIIa (100 µM) ([1]; inhibitor at 100 µM) | % Inhibition Factor Xa (100 µM) (Human factor Xa; inhibitor at 100 µM) | also measured
O=C(Cn1c(-c2ccc(Cl)cc2)c(Cl)nc(NCCc2ccncc2)c1=O)NCCc1ccncc1 [Example E-0022] | 0% | 0% | 
O=C(Cn1c(-c2cccc(Cl)c2)c(Cl)nc(NCc2ccccc2)c1=O)NCCc1ccncc1 [Example E-0073] | 0% | 2% | 
N=C(N)c1ccc(CNC(=O)Cn2c(-c3ccc(-c4ccccc4)cc3)c(Cl)nc(NCCc3ccccc3)c2=O)cc1 [1471-71] |  |  | % Inhibition TF-VIIa (30 µM) ([1]; at 30 µM inhibitor): 6%; % Inhibition Factor Xa (30 µM) (Human factor Xa; at 30 µM inhibitor): 0%
COc1ccc(-c2c(Cl)nc(NCCc3ccncc3)c(=O)n2CC(=O)NCCc2ccncc2)cc1 [Example E-0038] | 0% | 0% | 
O=C(Cn1c(-c2ccc3c(c2)OCO3)c(Cl)nc(NCCc2ccncc2)c1=O)NCCc1ccncc1 [Example E-0046] | 0% | 0% | 
O=C(Cn1c(-c2ccc(Cl)cc2)c(Cl)nc(NCc2ccccc2)c1=O)NCCc1ccncc1 [Example E-0017] | 0% | 0% | 
COc1ccc(-c2c(Cl)nc(NCCN3CCOCC3)c(=O)n2CC(=O)NCc2ccc(C(=N)N)cc2)cc1 [1471-36] |  |  | % Inhibition TF-VIIa (30 µM) ([1]; at 30 µM inhibitor): 11%; % Inhibition Factor Xa (30 µM) (Human factor Xa; at 30 µM inhibitor): 6%
CC(C)Nc1nc(Cl)c(-c2cc(N)cc(C(=O)NCc3ccc(Cl)cc3Cl)c2)n(CC(=O)NCc2ccc(C(=N)N)cc2)c1=O [Example 128-5] |  |  | IC50 [1]: 84.7 nM; % Inhibition Factor Xa at 100 μM (Human factor Xa; at 100 μM inhibitor): 43% at 100 μM
COc1ccc(-c2c(Cl)nc(NCCc3ccncc3)c(=O)n2CC(=O)NCc2ccc(C(=N)N)cc2)cc1 [1471-37] |  |  | % Inhibition TF-VIIa (30 µM) ([1]; at 30 µM inhibitor): 39%; % Inhibition Factor Xa (30 µM) (Human factor Xa; at 30 µM inhibitor): 7%
N=C(N)c1ccc(CNC(=O)Cn2c(Cc3ccccc3)c(Cl)nc(NCCc3ccccc3)c2=O)cc1 [Example 20] |  |  | % Inhibition TF-VIIa (30 µM) ([1]; at 30 µM inhibitor): 41% @ 30; % Inhibition Factor Xa (30 µM) (Human factor Xa; at 30 µM inhibitor): 6% @ 30
O=C(Cn1c(-c2cccc(Cl)c2)c(Cl)nc(NCCc2cccc(Cl)c2)c1=O)NCCc1cccnc1 [Example E-0092] | 1% | 3% | 
COc1ccc(-c2c(Cl)nc(NCc3ccncc3)c(=O)n2CC(=O)NCc2ccc(C(=N)N)cc2)cc1 [1471-35] |  |  | % Inhibition TF-VIIa (30 µM) ([1]; at 30 µM inhibitor): 37%; % Inhibition Factor Xa (30 µM) (Human factor Xa; at 30 µM inhibitor): 22%
O=C(Cn1c(-c2cccc(Cl)c2)c(Cl)nc(NCCc2cccc(Cl)c2)c1=O)NCCc1ccncc1 [Example E-0079] | 0% | 4% | 
O=C(Cn1c(-c2ccc3c(c2)OCO3)c(Cl)nc(NCCc2ccccc2)c1=O)NCCc1ccncc1 [Example E-0042] | 0% | 0% | 
COc1ccc(-c2c(Cl)nc(NCCc3cccnc3)c(=O)n2CC(=O)NCCc2ccncc2)cc1 [Example E-0037] | 0% | 0% | 
O=C(Cn1c(CCc2ccccc2)c(Cl)nc(NCCc2ccccc2)c1=O)NCCc1ccncc1 [Example E-0066] | 0% | 0% | 
N=C(N)c1ccc(CNC(=O)Cn2c(-c3ccc(-c4ccccc4)cc3)c(Cl)nc(NCCc3cccnc3)c2=O)cc1 [Example 21] |  |  | % Inhibition TF-VIIa (30 µM) [1]: 8% @ 30; % Inhibition Factor Xa (30 µM) (Human factor Xa): 21% @ 30
CC(C)Nc1nc(Cl)c(-c2cc(N)cc(C(=O)NC(C)c3ccccc3)c2)n(CC(=O)NCc2ccc(C(=N)N)cc2)c1=O (centres unmarked) [Example 128-3] |  |  | IC50 [1]: 8.2 nM; inhibition at 100 µM (Human factor Xa; at 100 μM inhibitor): 40%
O=C(Cn1c(-c2ccc3c(c2)OCO3)c(Cl)nc(NCCN2CCOCC2)c1=O)NCCc1ccncc1 [Example E-0047] | 0% | 0% | 
O=C(Cn1c(-c2ccc(-c3ccccc3)cc2)c(Cl)nc(NCc2ccccc2)c1=O)NCCc1ccncc1 [Example E-0049] |  |  | % Inhibition TF-VIIa (100 µM) [1]: 2%; % Inhibition Factor Xa (100 µM) (Human factor Xa): 0%
CC(C)Nc1nc(Cl)c(-c2cc(N)cc(C(=O)NCc3ccccc3)c2)n(CC(=O)NCc2ccc(C(=N)N)cc2)c1=O [Example 128-9] |  |  | IC50 [1]: 7 nM; inhibition at 100 µM (Human factor Xa; at 100 μM inhibitor): 36%
Cc1c(Cl)nc(NCc2ccncc2)c(=O)n1CC(=O)NCCc1ccncc1 [Example E-0008] | 0% | 0% | 
O=C(Cn1c(-c2cccc(Cl)c2)c(Cl)nc(NCCc2ccc(Cl)cc2)c1=O)NCCc1cccnc1 [Example E-0095] | 2% | 4% | 
O=C(Cn1c(-c2cccc(Cl)c2)c(Cl)nc(NCCc2ccccc2)c1=O)NCCc1ccncc1 [Example E-0088] | 0% | 3% | 
N=C(N)c1ccc(CNC(=O)C(Cc2ccccc2)n2c(-c3ccccc3)c(Cl)nc(NCCc3cccc(Cl)c3)c2=O)cc1 (centres unmarked) [Example 1517-20] |  |  | % Inhibition TF-VIIa (30 µM) ([1]; at 30 µM): 22%; % Inhibition Factor Xa (30 µM) (Human factor Xa; at 30 µM): 0%
